Results: article PMC10002517, “Inhibition of Transglutaminase 2 as a Therapeutic Strategy in Celiac Disease—In Vitro Studies in Intestinal Cells and Duodenal Biopsies” (International Journal of Molecular Sciences, 2023)

Legend:
[1] = target: T1, extracellular TG2 on Caco-2 cells (Homo sapiens, UniProt P21980); test: Extracellular TG2 activity on confluent Caco-2 cell monolayers (5BP cross-linking); format: cell-based; details: n = 4; for reduction of TG2 activity on the cell surface: IFN-γ-stimulated Caco-2 cells, 5BP 3 h
T1 construct: endogenous in cells; host or cells: Caco-2 (differentiated; IFN-γ-stimulated in the monolayer assay)
T1 sequence (P21980 1-687): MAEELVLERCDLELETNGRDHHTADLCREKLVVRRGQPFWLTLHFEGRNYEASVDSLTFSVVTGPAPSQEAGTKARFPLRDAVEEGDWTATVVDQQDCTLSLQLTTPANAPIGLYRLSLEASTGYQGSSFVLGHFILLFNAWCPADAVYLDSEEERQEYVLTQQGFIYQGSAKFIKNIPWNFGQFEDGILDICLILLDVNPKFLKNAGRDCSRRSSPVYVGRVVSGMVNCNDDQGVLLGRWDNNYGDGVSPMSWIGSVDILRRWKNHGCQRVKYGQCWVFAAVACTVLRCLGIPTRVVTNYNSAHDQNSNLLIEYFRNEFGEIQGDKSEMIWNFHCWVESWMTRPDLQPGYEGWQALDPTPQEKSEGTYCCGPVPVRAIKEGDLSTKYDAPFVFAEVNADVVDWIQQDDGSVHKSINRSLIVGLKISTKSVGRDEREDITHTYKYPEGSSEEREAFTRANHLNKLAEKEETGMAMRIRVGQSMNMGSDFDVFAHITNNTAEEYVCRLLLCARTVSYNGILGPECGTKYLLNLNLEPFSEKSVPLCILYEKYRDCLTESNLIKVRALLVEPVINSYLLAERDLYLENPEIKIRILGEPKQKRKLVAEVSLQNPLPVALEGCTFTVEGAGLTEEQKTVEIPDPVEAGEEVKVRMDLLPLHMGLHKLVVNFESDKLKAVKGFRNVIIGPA
Method: The method was adapted from Yi et al.. To induce TG2 expression, Caco-2 cells were stimulated with IFN-γ 1000 IU/mL for 48 h. Then, cells were washed three times with warm PBS and incubated with the substrate 5BP for 3 h at 37 °C in 50 mM Tris and 1 mM EDTA (pH 7.5). The substances ERW1041, PX-12 and DTT were added to this solution when indicated. After incubation, cells were washed three times with PBS, fixed with 4% paraformaldehyde for 10 min and blocked with 5% BSA in PBS at 4 °C overnight. Then, cells were incubated at room temperature with streptavidin-Alexa488 (Thermo Scientific, 4 µg/mL) in 5% BSA in the dark for 1 h, followed by three washes with PBS. Fluorometric quantitation was conducted using a FLUOstar Optima microplate reader (BMG Labtech, filter settings: excitation 485 nm, emission 525 nm). Manual gain adjustment was performed, setting the well with the most intense signal as 95%. In all experiments, data were background subtracted against a control without 5BP substrate.

[2] = target: T2, TG2 in Caco-2 cell lysates (Homo sapiens, UniProt P21980); test: Transglutaminase activity in Caco-2 whole cell lysates (5BP cross-linking); format: biochemical; details: 10 µM inhibitor (b1); lysate of differentiated Caco-2 cells incubated with 5BP and inhibitor overnight; mean ± SD, n = 3
T2 construct: endogenous in cells; host or cells: Caco-2 (differentiated; IFN-γ-stimulated in the monolayer assay)
T2 sequence (P21980 1-687): T1 sequence (P21980 1-687)
Method: The method to investigate TG2 activity from whole cell lysates was adapted from Lin et al.. In brief, 20 µg protein per cavity on the 96-well plate were incubated in 50 mM Tris, 1 mM EDTA, 5 mM calcium chloride (pH 7.5) buffer in the presence of 500 µM 5BP (5-biotinamidopentylamine, Thermo Fisher Scientific, Langenselbold, Germany) for the indicated time. After incubation, the plate was washed three times with PBS + 0.05% Tween. After blocking with 5% BSA in PBS for 1 h, the plate was incubated with 2 µg/mL streptavidin-Alexa Fluor 488 (Thermo Fisher Scientific) in 5% BSA. After 3 washing steps with PBS + 0.05% Tween, fluorometric evaluation was performed using a Clariostar Plus (BMG Labtech) microplate reader (no well scan mode, excitation 488 nm, emission 535 nm, fixed gain: 2000).

Caco-2 cells = test: Resazurin-based cell viability assay (PrestoBlue HS); parameters: species or system human; details: confluent Caco-2 cells, 24 h in medium, n = 3
Method: The cell viability of Caco-2 cells was examined using PrestoBlue HS (A13261, (Thermo Fisher Scientific). In brief, Caco-2 cells (7–8 days after confluency) were incubated with PX-12 or ERW1041 at the indicated concentrations for 24 h in full medium. As a positive control, cells were incubated with 4% PFA for 10 min. After washing with PBS, cells were incubated with PrestoBlue HS diluted 1:10 in culture medium for 2 h at 37 °C. Fluorometric examination was conducted using a Clariostar Plus (no well scan mode, bottom optic measurement, excitation 545 nm, emission 600 nm, fixed gain: 800). Every experiment was performed in duplicates with at least three technical replicates. Normalization was performed against conditions, where cells were not treated with TG2 inhibitors.

[3] = up to a concentration of 100 µM

TG2 activity in Caco-2 cell lysates [2] [%] | reduction of TG2 activity on the cell surface ([1]; 10 µM) | reduction of TG2 activity on the cell surface ([1]; 100 µM) [%] | SMILES | inhibition of TG2 on confluent Caco-2 monolayers ([1]; concentrations between 10 nM and 100 µM) | cell viability (Caco-2 cells; 200 µM and 500 µM) | cell viability (Caco-2 cells; [3])
12 ± 7 |  |  | CCC(C)SSc1ncc[nH]1 (stereo not drawn) [PX-12, 2-[(1-methylpropyl)dithio]-1H-imidazole] | did not observe any significant inhibition of TG2 | significantly reduced cell viability | did not affect cell viability
45 ± 19 | about 32% | ~70 | O=C(NC[C@@H]1CC(Br)=NO1)[C@@H]1CCCN1C(=O)OCc1cnc2ccccc2c1 [ERW1041] |  | significantly reduced cell viability | did not affect cell viability
